Experimental data taken from article PMC5623904, “Structural investigation of nucleophosmin interaction with the tumor suppressor Fbw7γ” (Oncogenesis, 2017).

Experiments:
Assay type in all cases: binding
[1] = molecular target: T1, Nter-NPM1 D36A-E37A-E39A-E93A-E121A (Homo sapiens, UniProt P06748, D36A/E121A/E37A/E39A/E93A); test: Equilibrium fluorescence titration, Nter-NPM1 quintuple mutant; settings: dansylated peptide 5 μM; sodium phosphate 20 mM pH 7.2, 25 °C; triplicate, ±s.d.
T1 construct: inferred from pET28a NdeI/BamHI cloning and HisTrap purification) (N); made in house; host or cells: Escherichia coli BL21(DE3)
Procedure: (§1) Nter-NPM1 mutants were obtained by site-directed mutagenesis using the Quickchange II Lightning Site-Directed Mutagenesis kit (Stratagene, La Jolla, CA, USA), following manufacturer’s instructions. Oligonucleotides used for PCR were obtained from Primm Biotech (Milan, Italy). Forward oligonucleotides used are reported in Supplementary Table 2.
(§2) All experiments were performed at 25 °C in sodium phosphate buffer 20 mM pH 7.2, or in sodium phosphate buffer 20 mM plus 100 mM NaCl pH 7.2 (which sets ionic strength to 150 mM), using a FluoroMax-4 spectrofluorometer (Jobin Yvon, Edison, NJ, USA), equipped with a water bath apparatus. Fbw7γ and CENP-W peptides, functionalized with a dansyl (5-dimetilamminonaftalen-1-sulphonyl) group at their N terminus, were purchased from JPT (Germany). Tat peptide was synthesized employing the solid phase method following standard Fmoc strategies and labeled with dansyl fluorophore at its N terminus. Crude product was purified by RP-HPLC applying a linear gradient of 0.1% TFA CH3CN in 0.1% TFA water from 5% to 65% over 12 min using a semi-preparative 2.2 × 5 cm C18 column at a flow rate of 20 ml/min. Purity and identity were confirmed by LC–MS analysis.
(§3) Titration experiments were conducted with an excitation wavelength of 330 nm while the fluorescence emission spectra were collected in the range between 350 and 650 nm. Titrations were performed at constant peptide concentration (5 μM) and varying protein concentrations (from 0 to 200/400 μM). Titrations were performed in triplicate and data, analyzed with the Graphpad Prism software (https://www.graphpad.com/scientific-software/prism/), were reported as dissociation constant±s.d.
(§4) Equilibrium binding curves were fitted to the standard quadratic equation: […]
(§5) where F is the observed fluorescence signal, n and [A]0 are the total concentration of non-varied and varied species, respectively, and KD is the equilibrium dissociation constant. B and C are constants taking into account the total fluorescence change and fluorescence at [A]0=0, respectively, and k is a term describing the slope of the curve at high protein concentration. Whenever possible, under pseudo first-order conditions, the equation 1 was simplified to: […]

Nter-NPM1 D36A-E39A-E93A = molecular target: T2, Nter-NPM1 D36A-E39A-E93A (Homo sapiens, UniProt P06748, D36A/E39A/E93A); test: Equilibrium fluorescence titration, Nter-NPM1 triple mutant; settings: dansylated peptide 5 μM; sodium phosphate 20 mM pH 7.2, 25 °C; triplicate, ±s.d.; read-out: KD, D36A-E39A-E93A
T2 construct: inferred from pET28a NdeI/BamHI cloning and HisTrap purification) (N); made in house; host or cells: Escherichia coli BL21(DE3)
Procedure: as §1, §2, §3, §4, §5

[2] = molecular target: T3, Nter-NPM1 D36A-E39A-E93A-E121A (Homo sapiens, UniProt P06748, D36A/E121A/E39A/E93A); test: Equilibrium fluorescence titration, Nter-NPM1 quadruple mutant (E121A); settings: dansylated peptide 5 μM; sodium phosphate 20 mM pH 7.2, 25 °C; triplicate, ±s.d.
T3 construct: inferred from pET28a NdeI/BamHI cloning and HisTrap purification) (N); made in house; host or cells: Escherichia coli BL21(DE3)
Procedure: as §1, §2
as §3, with “constant±s.d. […]” for “constant±s.d.”
as §5, with “concentration.” for “concentration. Whenever possible, under pseudo first-order conditions, the equation 1 was simplified to:”

[3] = molecular target: T4, Nter-NPM1 D36A-E37A-E39A-E93A (Homo sapiens, UniProt P06748, D36A/E37A/E39A/E93A); test: Equilibrium fluorescence titration, Nter-NPM1 quadruple mutant (E37A); settings: dansylated peptide 5 μM; sodium phosphate 20 mM pH 7.2, 25 °C; triplicate, ±s.d.; read-out: KD, D36A-E37A-E39A-E93A
T4 construct: inferred from pET28a NdeI/BamHI cloning and HisTrap purification) (N); made in house; host or cells: Escherichia coli BL21(DE3)
Procedure: as §1, §2, §3, §4, §5

[4] = molecular target: T5, Nter-NPM1 (residues 16-123) (Homo sapiens, UniProt P06748); test: Equilibrium fluorescence titration of dansylated peptide with Nter-NPM1; settings: for Nter-NPM1 KD: wild-type Nter-NPM1, N-terminally dansylated peptide 5 μM, protein 0 to 200/400 μM, sodium phosphate 20 mM pH 7.2, 25 °C, fluorescence ex 330 nm, triplicate, ±s.d., Ni = no interaction
T5 construct: inferred from pET28a NdeI/BamHI cloning and HisTrap purification) (N); made in house; host or cells: Escherichia coli BL21(DE3)
Procedure: as §2, §3, §4, §5

T5 sequence (P06748 16-123): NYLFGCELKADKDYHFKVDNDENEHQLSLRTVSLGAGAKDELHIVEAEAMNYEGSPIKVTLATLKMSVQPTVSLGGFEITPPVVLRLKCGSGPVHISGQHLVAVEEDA
T1 sequence (P06748 16-123 D36A/E37A/E39A/E93A/E121A): as the sequence (P06748 16-123) above, with D21A, E22A, E24A, E78A, E106A counted along it
T3 sequence (P06748 16-123 D36A/E39A/E93A/E121A): as the sequence (P06748 16-123) above, with D21A, E24A, E78A, E106A counted along it
T4 sequence (P06748 16-123 D36A/E37A/E39A/E93A): as the sequence (P06748 16-123) above, with D21A, E22A, E24A, E78A counted along it
T2 sequence (P06748 16-123 D36A/E39A/E93A): as the sequence (P06748 16-123) above, with D21A, E24A, E78A counted along it

| Compound | Kd [1] [µM] | Kd (Nter-NPM1 D36A-E39A-E93A) [µM] | Kd [2] [µM] | Kd [3] [µM] | Kd ([4]; SD, read-out: Nter-NPM1 KD) [µM] | Nter-NPM1 KD [4] | Nter-NPM1 KD ([4]; listed as unrelated long) |
| --- | --- | --- | --- | --- | --- | --- | --- |
| C[C@H](NS(=O)(=O)c1cccc2c(N(C)C)cccc12)C(=O)NCC(=O)N[C@@H](CCCNC(=N)N)C(=O)N[C@@H](CCCCN)C(=O)N[C@@H](CCCCN)C(=O)N[C@@H](CCCNC(=N)N)C(=O)N[C@@H](CCCNC(=N)N)C(=O)N[C@@H](CCC(N)=O)C(=O)N[C@@H](CCCNC(=N)N)C(=O)N[C@@H](CCCNC(=N)N)C(=O)N[C@@H](CCCNC(=N)N)C(=O)N1CCC[C@H]1C(=O)N1CCC[C@H]1C(=O)N[C@@H](CCC(N)=O)C(=O)O [Tat*] | 643 ± 70.8 | 11.1 ± 2.1 | 63.8 ± 5 | 57.4 ± 7 | 2.4 ± 0.5 | – | – |
| DDEAQTLAKFVLSQK [Unrelated long, reference compound] | – | – | – | – | – | Ni | No interaction |
